The values that follow come from ChEMBL document CHEMBL3853266, “A complex game of hide and seek: the search for new antifungals” (Medchemcomm, 2016).

For orientation: MIC means the least concentration at which growth counts as inhibited. Higher therefore signals weaker potency.

Values after ≈ are worked out from the molar mass of the structure shown.

The nature of the assay: Antifungal activity against Candida albicans clinical isolate by serial twofold dilution microtitre plate method. It counts as functional.

Consider `COc1ccc2oc(=O)sc2c1C(=O)/C=C/c1ccc(OCCCN(C)C)cc1`, for which inhibition of growth (MIC) required 1 µg/mL (≈ 2.42 µM).
